Structures can show the parent of a compound that is named as a salt. Where two headings read alike, the source gives them in different places.
Columns and labels:
[1] = biological target: T1, human serotonin transporter (hSERT) (Homo sapiens, UniProt P31645); assay: SPA radioligand binding at human serotonin transporter (3H-citalopram)
T1 construct: expressed in transfected cells; host or cells: HEK-293
Procedure: The compounds are tested for biological activity by their ability to inhibit binding of selective radioligands at the human serotonin and noradrenaline transporters (SERT and NET, respectively), using scintillation proximity assay (SPA) technology. The SPA binding is performed using cellular membrane preparations prepared from cell lines expressing human cDNA encoding either SERT or NET (hSERT, hNET), using the radioligands 3H-citalopram and 3H-nisoxetine.
Human embryonic kidney cells (HEK-293) expressing each transporter are maintained as a continuous culture, using standard cell culture techniques, in 50 mL of growth medium (see Media and Buffers for composition) in 225 cm^2 flasks, at 37° C. in a humidified atmosphere with 5% CO2 present. Cells are passaged from a 90% confluent monolayer at a ratio of 1:3-1:4. For cell harvesting, the growth medium is removed from the monolayer and the cells are incubated with cell dissociation solution (Sigma) until showing signs of dissociation. The cells are subsequently knocked from the base of the flask and pelleted by centrifugation for storage (frozen at −80° C.) prior to further use.
Cell pellets are thawed on ice and resuspended in 3 mL of membrane preparation buffer (see Media and Buffers for composition) per 1 mL of packed cell volume, using a vortex mixer to disperse the cell pellet. • After incubation on ice for 10 minutes, the suspension is homogenised for four individual 10 second intervals using a hand-held homogeniser. The homogenate is then centrifuged at 1075×g for 20 minutes at 4° C. • The supernatants are then collected and retained. Initial cell & nuclei pellets (P1) are subsequently rehomogenised and centrifuged using the conditions cited above, and the supernatants collected and pooled with those retained from the first spin.
The pooled supernatants are centrifuged at 35000×g for 30 minutes at 4° C., and the supernatants discarded. The pellets (P2) are then resuspended in 1 mL of membrane preparation buffer per 1 mL of the original packed cell volume. Protein concentrations are then measured and the membrane suspension was finally frozen in aliquots of set volume and stored at −80° C. prior to use in assays.
The specific SPA bead type differed for each transporter, wheat germ agglutinin-coated yttrium silicate (YSi WGA) SPA beads are used for hSERT and WGA-coated polyvinyltoluene (PvT WGA) SPA beads for hNET assays. For each batch of membrane used, optimal concentrations of bead and membrane are determined
Tritiated radioligands specific to each transporter (3H-citalopram for hSERT and ^3H-nisoxetine for hNET) are used. The assay free radioligand concentration is expressed as a percentage of the total free radioligand concentration to give an estimate of the radioligand depletion. The radioligand depletion in assays for both transporters is less than 30% to ensure that there was sufficient radioligand available for binding. The ligand depletion value is also used for selecting the optimal assay conditions when using new batches of membranes.
The affinity of the specific radioligand for the respective transporter is determined for each membrane batch at the selected protein and bead concentrations. This is achieved by the determination of the KD, the concentration of free radioligand at which 50% of the transporter binding sites were occupied. The mean KD for a radioligand at a batch of membranes is determined from data from a minimum of three separate assays. The mean KD is subsequently used for all assays using the membrane batch profiled to enable determination of Ki values of compounds studied using the method determined by Cheng and Prussoff (Cheng Y C and Prusoff W H. Relationship between the inhibition constant (Ki) and the concentration of inhibitor which causes 50% inhibition of an enzymatic reaction. Biochem Pharmacol 1973; 22:[…].)
The required amount of membrane is thawed on ice and added to a predetermined volume of bead suspension in assay buffer. […]

[2] = biological target: T2, human noradrenaline transporter (hNET) (Homo sapiens, UniProt P23975); assay: SPA radioligand binding at human noradrenaline transporter (3H-nisoxetine)
T2 construct: expressed in transfected cells; host or cells: HEK-293
Procedure: The affinity of the specific radioligand for the respective transporter is determined for each membrane batch at the selected protein and bead concentrations. […] The mean KD for a radioligand at a batch of membranes is determined from data from a minimum of three separate assays.
The required amount of membrane is thawed on ice and added to a predetermined volume of bead suspension in assay buffer. The beads are then pre-coupled by incubating the predetermined protein quantity per mg of bead on a shaker at a temperature of 4° C. for 2 hours. Subsequently, the bead/membrane complex is spun down at 865×g for 5 minutes. The resulting pellet is resuspended in assay buffer and this spin/wash step is then repeated. The final pellet is then resuspended in assay buffer at the specific concentration required for the final assay.
An aliquot of [^3H]-radioligand stock is diluted in assay buffer to give a pre-determined final assay concentration less than the equilibrium dissociation constant (KD) value.
All test compounds are prepared at a concentration of 4 mM in 100% dimethyl sulphoxide (DMSO) from dry samples.
The same volume of assay buffer is added to specific wells of the plate to enable subsequent measurement of total radioligand binding. Furthermore, 20 μL a high concentration of compound specific to each transporter assay is subsequently added to predetermined wells to determine non-specific binding (NSB).

[3] = hNET membranes from HEK-293 cells, 3H-nisoxetine, SPA, read-out: NRI Ki
[4] = hSERT membranes from HEK-293 cells, 3H-citalopram, SPA, read-out: SRI Ki

T2 sequence (P23975 whole entry): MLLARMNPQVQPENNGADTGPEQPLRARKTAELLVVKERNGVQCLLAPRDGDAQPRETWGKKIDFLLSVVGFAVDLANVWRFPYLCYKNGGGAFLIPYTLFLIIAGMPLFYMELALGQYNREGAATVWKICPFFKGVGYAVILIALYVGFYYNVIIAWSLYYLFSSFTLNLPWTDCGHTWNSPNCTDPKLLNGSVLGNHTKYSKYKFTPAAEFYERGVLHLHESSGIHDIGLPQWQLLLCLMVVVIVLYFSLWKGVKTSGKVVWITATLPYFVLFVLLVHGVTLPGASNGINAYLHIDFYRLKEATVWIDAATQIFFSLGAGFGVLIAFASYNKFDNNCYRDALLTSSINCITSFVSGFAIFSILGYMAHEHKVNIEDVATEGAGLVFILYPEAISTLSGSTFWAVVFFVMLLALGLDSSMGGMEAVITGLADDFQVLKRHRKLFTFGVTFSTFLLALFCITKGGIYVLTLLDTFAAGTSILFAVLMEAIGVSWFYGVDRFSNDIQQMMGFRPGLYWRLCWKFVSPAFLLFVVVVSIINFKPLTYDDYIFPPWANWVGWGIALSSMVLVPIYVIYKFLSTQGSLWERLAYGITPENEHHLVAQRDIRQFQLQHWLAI
T1 sequence (P31645 whole entry): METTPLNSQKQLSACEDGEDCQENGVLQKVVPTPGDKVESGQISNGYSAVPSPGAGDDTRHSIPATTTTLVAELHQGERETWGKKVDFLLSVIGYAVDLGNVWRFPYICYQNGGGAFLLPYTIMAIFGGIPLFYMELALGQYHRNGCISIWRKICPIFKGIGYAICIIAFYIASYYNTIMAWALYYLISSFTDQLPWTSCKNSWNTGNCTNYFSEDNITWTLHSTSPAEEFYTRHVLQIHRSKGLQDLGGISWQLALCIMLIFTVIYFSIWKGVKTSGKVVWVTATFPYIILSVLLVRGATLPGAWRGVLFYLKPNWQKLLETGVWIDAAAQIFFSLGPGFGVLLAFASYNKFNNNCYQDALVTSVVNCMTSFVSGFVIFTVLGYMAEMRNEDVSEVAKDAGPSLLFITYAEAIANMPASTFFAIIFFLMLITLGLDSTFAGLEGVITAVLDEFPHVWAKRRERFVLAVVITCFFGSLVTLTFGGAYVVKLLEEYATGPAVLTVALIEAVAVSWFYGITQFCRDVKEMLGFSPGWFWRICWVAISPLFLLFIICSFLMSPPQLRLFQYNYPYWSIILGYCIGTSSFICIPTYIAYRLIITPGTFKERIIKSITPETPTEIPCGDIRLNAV

| Ki [2, 3] [nM] | Ki [1, 4] [nM] | Ki [2] [nM] | Compound | Ki [1] [nM] |
| --- | --- | --- | --- | --- |
|  | 20 | 6 | CSc1ccccc1C(=O)N(CC1(C)CCC1)[C@H]1CCNC1 [Example 9, N-[(1-methylcyclobutyl)methyl]-2-(methylthio)-N-[(3S)-pyrrolidin-3-yl]benzamide hydrochloride] |  |
| 9 | 2400 |  | CCCN(C(=O)c1cc(F)ccc1Oc1ccccc1)[C@H]1CCNC1 [Example 7, 5-fluoro-2-phenoxy-N-propyl-N-[(3S)-pyrrolidin-3-yl]benzamide hydrochloride] |  |
| 12 | 70 |  | O=C(c1ccccc1Oc1ccccc1)N(C1CCCC1)[C@H]1CCNC1 [Example 4, N-Cyclopentyl-2-phenoxy-N-[(3S)-pyrrolidin-3-yl]benzamide hydrochloride] |  |
| 16 | 500 |  | O=C(c1ccccc1C1CCCC1)N(CC1CC1)[C@H]1CCNC1 [Example 19, 2-cyclopentyl-N-(cyclopropylmethyl)-N-[(3S)-pyrrolidin-3-yl]benzamide hydrochloride] |  |

| Compound | Ki [2, 3] [nM] | Ki [1, 4] [nM] | Ki [2] [nM] | Ki [1] [nM] |
| --- | --- | --- | --- | --- |
| O=C(c1ccccc1Oc1ccccc1)N(c1ccccc1)[C@H]1CCNC1 [Example 14, 2-phenoxy-N-phenyl-N-[(3S)-pyrrolidin-3-yl]benzamide hydrochloride] | 3 |  |  | 67 |
| CSc1ccccc1C(=O)N(C1CCCCC1)[C@H]1CCNC1 [Example 20, N-cyclohexyl-2-(methylthio)-N-[(3S)-pyrrolidin-3-yl]benzamide hydrochloride] | 5 | 17 |  |  |

— patent publication US20090239928A1, “N-Pyrrolidin-3YL-Amide Derivatives As Serotonin and Noradrenalin Re-Uptake Inhibitors” (priority 2004, published 2009)
